Values of other authors as cited in patent publication US20220054402A1, “COMPOSITIONS AND METHODS FOR EXTRACTING, STABILIZING, AND MAN[…] DOSAGE FORMS OF PSILOCIN, P[…], ENTHEOGENS, AND MEDICINAL MUSHROOMS AS NANO-D[…] DELIVERY STRUCTURES” (priority 2020, published 2022).

Assays:
[1] = oral ingestion
[2] = β-glucan embedded in chitin cell walls
[3] = biological target: serotonin 5-HT2A receptor (Homo sapiens, UniProt P28223); settings: psilocin versus psilocybin
Chain of serotonin 5-HT2A receptor (P28223 whole entry): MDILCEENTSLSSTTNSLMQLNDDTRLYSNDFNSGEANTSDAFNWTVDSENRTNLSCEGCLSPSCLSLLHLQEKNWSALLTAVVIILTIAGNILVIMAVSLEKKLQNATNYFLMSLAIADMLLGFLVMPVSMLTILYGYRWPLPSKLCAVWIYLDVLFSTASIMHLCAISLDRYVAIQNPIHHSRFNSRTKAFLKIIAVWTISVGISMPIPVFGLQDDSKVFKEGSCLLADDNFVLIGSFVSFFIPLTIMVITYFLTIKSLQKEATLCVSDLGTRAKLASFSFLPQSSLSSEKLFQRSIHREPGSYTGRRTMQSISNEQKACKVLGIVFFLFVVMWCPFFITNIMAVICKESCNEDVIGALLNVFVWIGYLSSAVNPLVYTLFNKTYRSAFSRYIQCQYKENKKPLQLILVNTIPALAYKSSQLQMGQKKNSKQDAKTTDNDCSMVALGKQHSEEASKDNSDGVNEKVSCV

Compound: COc1cc(CCN)cc(OC)c1OC [Mescaline, 5-trimethoxyphenethylamine]
- reported onset time of effects from ingesting [1]: 60 to 180 min

Compound: β-glucan
- bioavailability [2]: less than 5%

Compound: CN(C)CCc1c[nH]c2cccc(O)c12 [Psilocin, 4-hydroxy-NN-dimethyltryptamine]
- affinity for binding the serotonin 5-HT2A receptor relative to psilocybin [3]: more than 200 times
